Legend:
[1] = biological target: T1, protein-farnesyl transferase (PFT) (Rattus norvegicus, UniProt Q02293+Q04631); assay: Inhibitory activities against protein-farnesyl transferase (PFT); type: biochemical; details: PFT derived from rat brain; 37° C.; preincubation 10 minutes, reaction 20 minutes; read-out: 50% inhibitory concentrations against PFT activities, IC50
T1 construct: a soluble fraction of rat's brain was fractionated; from tissue; host or cells: rat brain, soluble fraction; 30-50% ammonium sulfate cut, dialysis, Q-Sepharose column
Procedure: PFT was separated in such a manner that a soluble fraction of rat's brain was fractionated by means of 30%-50% saturated ammonium sulfate, further dialyzed and then subjected to column chromatography by Q-cephalose™ (manufactured by Pharmacia) (Reiss et al, Cell, vol. 62, p. 81-88 (1990)).
Measurement of PFT activities was conducted by using, as a prenyl acceptor, H-ras protein or a substance that biotin was added to N-terminal of a peptide corresponding to a 7 amino acid residue at C terminal of K-rasB protein (biotin-added Lys-Thr-Ser-Cys-Val-Ile-Met) and, as a prenyl doner, [^3 H]-labeled farnesylpyrophosphate (FPP) (Reiss et al, Methods: A Companion to a Methods in Enzymology, vol. 1, No. 3, p. 241-245 (1990)).
The [^3 H]-labeled farnesylpyrophosphate (22.5 Ci/mmol) was purchased from New England Nuclear Co. Non-labeled farnesylpyrophosphate was chemically synthesized from ditriethylammonium phosphate, trans-trans-farnesol and trichloroacetonitrile and purified by XAD-2-resin column and diethylaminoethylcellulose (Cornforth et al, Methods in Enzymology, vol. 15, p. 385-390 (1969)).
H-ras protein was expressed in Escherichia coli and purified (Gibbs et al, Proc. Natl. Acad. Sci., vol. 81, p. 5704-5708 (1984)).
The PFT reaction solution containing H-ras protein as the prenyl acceptor was 25 μl, and its composition was 50 mM Hepes pH7.5/50 μM ZnCl2 /5 mM MGCl2 /20 mM KCl/5mM DTT/0.6 μM all trans [^3 H]-farnesylpyrophosphate/25 μM H-ras protein/PFT derived from rat brain (Q-sephalose fraction). The reaction temperature was 37° C., the preincubation time was 10 minutes, and the reaction time was 20 minutes. […]
The enzymatic reaction product containing H-ras protein as the prenyl acceptor, was analyzed by SDS-PAGE (sodium dodecylsulfate/polyacrylamide gel electrophoresis). […]
The measurement of PFT activities using H-ras protein as the prenyl receptor, was also analyzed by a rapid separate method. […]

[2] = system: farnesyl-modification of Ras protein; assay: Inhibitory activities against farnesyl-modification of Ras protein in NIH3T3 cells transformed by activated ras gene; type: cell-based; details: Mus musculus, 24 hours, read-out: 50% inhibitory concentrations against farnesyl-modification of Ras protein, IC50
Procedure: Using the compounds of the present invention, inhibitory activities against farnesyl-modification of Ras protein in NIH3T3 cells transformed by activated ras gene, were measured.
The NIH3T3 cells transformed by activated ras gene, were seeded on a culture plate and cultured for 3 days. Then, a compound of the preset invention in a predetermined concentration was added to the culture. In accordance with the method disclosed in J. Biol. Chem., vol. 268, p. 18415 (1993), the cells were cultured for 24 hours and then taken off from the plate, and the cells were dissolved. After centrifugal separation for 5 minutes under 12000 g, the supernatant was used as a cell extract. The cell extract was subjected to SDS polyacrylamide gel electrophoresis to separate farnesyl-modified Ras protein and non-farnesyl-modified Ras protein. The protein on the gel was transferred onto a nitrocellulose membrane, and an anti-Ras protein antibody was reacted as a probe (primary antibody reaction). An anti-primary antibody, a peroxidase inclusion (secondary antibody), was reacted, and then Ras protein was detected by a chemical fluorescence enhancing kit. The proportion of non-farnesyl-modified Ras protein was quantified by a densitometer and taken as the inhibitory activity.
The 50% inhibitory concentrations (IC50 values) of the compounds of the present invention against farnesyl-modification of Ras protein are shown in Table 2.

NIH/ras cells = assay: Antitumor effects to transformed cells (NIH/ras) using active type human Ha-ras, cells transplanted subcutaneously to a nude mouse; type: in vivo; details: once a day day 1 to 6; for Growth inhibition: day 7; for Weight of tumor, Average (g) ± standard deviation: tumor weighed day 7, control 0.22 ± 0.07
From the text: (Antitumor effects to transformed cells (NIH/ras) using active type human Ha-ras)
^1) Tumor inoculation: 10^6 cells were transplanted subcutaneousl
^2) Dose: Each dose was intraperitonealy administered once a day from
the first day to the sixth day after the inoculation of the cells.
^3) Weight of tumor: On the seventh day after inoculation of the
cells, the tumors were weighed.
^4) Growth inhibition: (1(average weight of tumor of the treated
group/average weight of tumor of the control group)) × 100
*and **: Statistical analysis by ttest are 5% and 1%, respectively.

[3] = 10 mg/kg/injection intraperitoneal

Row | SMILES | IC50 [1] [nM] | IC50 [2] [nM] | other results
1 | C[C@H]([C@H](C/C=C/c1nc2ccccc2o1)c1ccc2c(c1)OCO2)N(Cc1ccc2ccccc2c1)C(=O)CC(C(=O)O)C(CC(=O)O)C(=O)O (mixture of isomers) [Example 45, 4-[N-{(1RS,2RS,4E)-5-(2-benzoxazolyl)-1-methyl-2-(3,4-methylenedioxyphenyl)-4-pentenyl}-N-(2-naphthylmethyl)carbamoyl]-1,2,3-butanetricarboxylic Acid] | 0.15 | 7700 | –
2 | C[C@H]([C@H](C/C=C/c1nc2ccccc2o1)c1ccc2c(c1)OCO2)N(Cc1ccc2ccccc2c1)C(=O)CC(CC(=O)O)(C(=O)O)C(=O)O (racemic) [Example 46, 3-[N-{(1RS,2RS,4E)-5-(2-benzoxazolyl)-1-methyl-2-(3,4-methylenedioxyphenyl)-4-pentenyl}-N-(2-naphthylmethyl)-carbamoyl]-1,2,2-propanetricarboxylic Acid] | – | 18000 | –
3 | COC(=O)c1ccc([C@H](C/C=C/c2nc3ccccc3o2)[C@H](C)N(Cc2ccc3sccc3c2)C(=O)C[C@@H](CC(=O)O)C(=O)O)cc1 (relative stereo) [Example 34, (2R^*)-2-[N-(5-benzo[b]thienylmethyl)-N-{(1RS,2RS,4E)-5-(2-benzoxazolyl)-2-(4-methoxycarbonylphenyl)-1-methyl-4-pentenyl}carbamoylmethyl]succinic Acid] | 0.53 | – | –
4 | CC(C(CC=Cc1nc2ccccc2o1)c1ccc2c(c1)OCO2)N(Cc1ccc2ccccc2c1)C(=O)C(O)CCC(=O)O (stereo not drawn) [Example 59, Sodium 4-[N-{(1RS,2RS,4E)-5-(2-benzoxazolyl)-1-methyl-2-(3,4-methylenedioxyphenyl)-4-pentenyl}-N-(2-naphthylmethyl)]carbamoyl-4-hydroxybutanoate] | 0.46 | – | –
5 | C[C@H]([C@H](C/C=C/c1nc2ccccc2o1)c1ccc2c(c1)OCO2)N(Cc1ccc2ccccc2c1)C(=O)C(O)=C(CC(=O)O)C(=O)OC(C)(C)C [Example 69, 4-[N-{(1R,2R,4E)-5-(2-benzoxazolyl)-1-methyl-2-(3,4-methylenedioxyphenyl)-4-pentenyl}-N-(2-naphthylmethyl)carbamoyl]-3-tert-butoxycarbonyl-4-hydroxy-3-butenoic Acid] | – | 4500 | Growth inhibition (NIH/ras cells; [3]): 23%; Weight of tumor, Average (g) ± standard deviation (NIH/ras cells; [3]): 0.17 ± 0.09 g; Growth inhibition (NIH/ras cells; 30 mg/kg/injection intraperitoneal): 59%; Weight of tumor, Average (g) ± standard deviation (NIH/ras cells; 30 mg/kg/injection intraperitoneal, ** t-test 1%): 0.09 ± 0.05 g
